# How the values were obtained:
# Experiment in all cases: kinome screen (33PanQinase)
# Type in all cases: biochemical
# RPS6KA5 = target: T1, RPS6KA5 (Homo sapiens, UniProt O75582)
# T1 construct: purchased Reaction Biology Europe GmbH (formerly ProQinase)
# Protocol: (§1) The Kinome Screening was performed by Reaction Biology Europe GmbH (http://reactionbiology.com; Freiburg i. Br., Germany).
# CHK2 = target: T2, CHK2 (Homo sapiens, UniProt O96017)
# T2 construct: purchased Reaction Biology Europe GmbH (formerly ProQinase)
# T2 sequence (O96017 whole entry): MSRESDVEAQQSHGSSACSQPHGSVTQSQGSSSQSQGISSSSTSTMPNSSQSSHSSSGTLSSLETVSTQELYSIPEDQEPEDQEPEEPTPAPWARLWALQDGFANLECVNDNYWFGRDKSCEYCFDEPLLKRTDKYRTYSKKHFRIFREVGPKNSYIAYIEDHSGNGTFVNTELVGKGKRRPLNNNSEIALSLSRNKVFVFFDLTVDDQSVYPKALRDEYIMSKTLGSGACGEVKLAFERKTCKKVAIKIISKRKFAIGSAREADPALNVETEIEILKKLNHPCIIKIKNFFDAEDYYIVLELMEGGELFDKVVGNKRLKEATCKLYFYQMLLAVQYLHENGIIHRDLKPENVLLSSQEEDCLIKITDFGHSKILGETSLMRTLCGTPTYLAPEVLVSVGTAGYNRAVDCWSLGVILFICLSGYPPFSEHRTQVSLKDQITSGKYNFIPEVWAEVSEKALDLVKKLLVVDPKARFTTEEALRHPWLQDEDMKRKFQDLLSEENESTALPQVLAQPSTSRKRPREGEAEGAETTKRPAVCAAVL
# Protocol: as §1
# ULK2 = target: T3, ULK2 (Homo sapiens, UniProt Q8IYT8)
# T3 construct: purchased Reaction Biology Europe GmbH (formerly ProQinase)
# T3 sequence (Q8IYT8 1-1036): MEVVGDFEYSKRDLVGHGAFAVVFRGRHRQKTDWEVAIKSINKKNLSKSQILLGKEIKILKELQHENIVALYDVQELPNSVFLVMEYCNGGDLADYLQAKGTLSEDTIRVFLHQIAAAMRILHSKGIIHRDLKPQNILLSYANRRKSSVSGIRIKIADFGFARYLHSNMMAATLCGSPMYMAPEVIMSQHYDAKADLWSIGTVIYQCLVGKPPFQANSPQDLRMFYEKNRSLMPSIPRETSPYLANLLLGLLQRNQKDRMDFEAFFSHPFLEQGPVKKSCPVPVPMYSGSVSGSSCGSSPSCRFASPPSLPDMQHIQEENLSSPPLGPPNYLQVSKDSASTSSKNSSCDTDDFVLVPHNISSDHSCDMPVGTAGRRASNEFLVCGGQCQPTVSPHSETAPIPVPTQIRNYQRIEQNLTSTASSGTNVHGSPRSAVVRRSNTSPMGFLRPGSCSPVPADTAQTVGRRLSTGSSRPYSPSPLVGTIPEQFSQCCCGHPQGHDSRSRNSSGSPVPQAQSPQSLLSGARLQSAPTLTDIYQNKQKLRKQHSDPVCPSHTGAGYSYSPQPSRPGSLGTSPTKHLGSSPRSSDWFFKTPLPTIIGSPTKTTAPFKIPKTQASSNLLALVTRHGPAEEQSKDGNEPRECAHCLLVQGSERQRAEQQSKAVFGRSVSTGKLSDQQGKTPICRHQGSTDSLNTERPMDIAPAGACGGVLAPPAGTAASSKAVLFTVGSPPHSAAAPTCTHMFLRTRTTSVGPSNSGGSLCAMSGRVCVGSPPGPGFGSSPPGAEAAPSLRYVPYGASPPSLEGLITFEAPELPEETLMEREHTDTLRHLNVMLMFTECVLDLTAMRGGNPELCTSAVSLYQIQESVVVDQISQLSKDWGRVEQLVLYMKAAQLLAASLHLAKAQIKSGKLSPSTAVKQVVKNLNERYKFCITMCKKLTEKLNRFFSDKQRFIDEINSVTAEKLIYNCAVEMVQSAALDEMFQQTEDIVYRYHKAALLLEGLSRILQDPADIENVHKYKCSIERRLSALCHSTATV
# Protocol: as §1
# GRK3 = target: T4, GRK3 (Homo sapiens, UniProt P35626)
# T4 construct: purchased Reaction Biology Europe GmbH (formerly ProQinase)
# T4 sequence (P35626 1-688): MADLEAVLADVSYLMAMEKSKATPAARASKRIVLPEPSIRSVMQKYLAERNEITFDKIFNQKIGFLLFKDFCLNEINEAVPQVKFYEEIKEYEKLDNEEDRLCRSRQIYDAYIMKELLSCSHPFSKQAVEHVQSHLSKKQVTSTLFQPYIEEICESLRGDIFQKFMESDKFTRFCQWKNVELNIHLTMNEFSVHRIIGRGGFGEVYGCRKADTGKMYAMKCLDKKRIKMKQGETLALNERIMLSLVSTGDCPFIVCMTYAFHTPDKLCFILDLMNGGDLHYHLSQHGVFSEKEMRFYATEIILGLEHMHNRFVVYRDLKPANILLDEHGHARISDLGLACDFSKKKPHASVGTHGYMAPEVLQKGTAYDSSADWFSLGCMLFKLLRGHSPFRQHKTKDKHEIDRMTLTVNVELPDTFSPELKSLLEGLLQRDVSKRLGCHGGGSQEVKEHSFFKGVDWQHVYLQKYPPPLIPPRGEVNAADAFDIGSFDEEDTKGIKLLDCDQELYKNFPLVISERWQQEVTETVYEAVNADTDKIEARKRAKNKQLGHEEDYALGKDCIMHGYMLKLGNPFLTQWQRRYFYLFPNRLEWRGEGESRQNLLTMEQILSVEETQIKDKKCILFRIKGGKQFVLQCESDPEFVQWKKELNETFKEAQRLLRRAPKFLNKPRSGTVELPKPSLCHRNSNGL
# Protocol: as §1
# MYLK = target: T5, MYLK (Homo sapiens, UniProt Q15746)
# T5 construct: purchased Reaction Biology Europe GmbH (formerly ProQinase)
# T5 sequence (Q15746 whole entry): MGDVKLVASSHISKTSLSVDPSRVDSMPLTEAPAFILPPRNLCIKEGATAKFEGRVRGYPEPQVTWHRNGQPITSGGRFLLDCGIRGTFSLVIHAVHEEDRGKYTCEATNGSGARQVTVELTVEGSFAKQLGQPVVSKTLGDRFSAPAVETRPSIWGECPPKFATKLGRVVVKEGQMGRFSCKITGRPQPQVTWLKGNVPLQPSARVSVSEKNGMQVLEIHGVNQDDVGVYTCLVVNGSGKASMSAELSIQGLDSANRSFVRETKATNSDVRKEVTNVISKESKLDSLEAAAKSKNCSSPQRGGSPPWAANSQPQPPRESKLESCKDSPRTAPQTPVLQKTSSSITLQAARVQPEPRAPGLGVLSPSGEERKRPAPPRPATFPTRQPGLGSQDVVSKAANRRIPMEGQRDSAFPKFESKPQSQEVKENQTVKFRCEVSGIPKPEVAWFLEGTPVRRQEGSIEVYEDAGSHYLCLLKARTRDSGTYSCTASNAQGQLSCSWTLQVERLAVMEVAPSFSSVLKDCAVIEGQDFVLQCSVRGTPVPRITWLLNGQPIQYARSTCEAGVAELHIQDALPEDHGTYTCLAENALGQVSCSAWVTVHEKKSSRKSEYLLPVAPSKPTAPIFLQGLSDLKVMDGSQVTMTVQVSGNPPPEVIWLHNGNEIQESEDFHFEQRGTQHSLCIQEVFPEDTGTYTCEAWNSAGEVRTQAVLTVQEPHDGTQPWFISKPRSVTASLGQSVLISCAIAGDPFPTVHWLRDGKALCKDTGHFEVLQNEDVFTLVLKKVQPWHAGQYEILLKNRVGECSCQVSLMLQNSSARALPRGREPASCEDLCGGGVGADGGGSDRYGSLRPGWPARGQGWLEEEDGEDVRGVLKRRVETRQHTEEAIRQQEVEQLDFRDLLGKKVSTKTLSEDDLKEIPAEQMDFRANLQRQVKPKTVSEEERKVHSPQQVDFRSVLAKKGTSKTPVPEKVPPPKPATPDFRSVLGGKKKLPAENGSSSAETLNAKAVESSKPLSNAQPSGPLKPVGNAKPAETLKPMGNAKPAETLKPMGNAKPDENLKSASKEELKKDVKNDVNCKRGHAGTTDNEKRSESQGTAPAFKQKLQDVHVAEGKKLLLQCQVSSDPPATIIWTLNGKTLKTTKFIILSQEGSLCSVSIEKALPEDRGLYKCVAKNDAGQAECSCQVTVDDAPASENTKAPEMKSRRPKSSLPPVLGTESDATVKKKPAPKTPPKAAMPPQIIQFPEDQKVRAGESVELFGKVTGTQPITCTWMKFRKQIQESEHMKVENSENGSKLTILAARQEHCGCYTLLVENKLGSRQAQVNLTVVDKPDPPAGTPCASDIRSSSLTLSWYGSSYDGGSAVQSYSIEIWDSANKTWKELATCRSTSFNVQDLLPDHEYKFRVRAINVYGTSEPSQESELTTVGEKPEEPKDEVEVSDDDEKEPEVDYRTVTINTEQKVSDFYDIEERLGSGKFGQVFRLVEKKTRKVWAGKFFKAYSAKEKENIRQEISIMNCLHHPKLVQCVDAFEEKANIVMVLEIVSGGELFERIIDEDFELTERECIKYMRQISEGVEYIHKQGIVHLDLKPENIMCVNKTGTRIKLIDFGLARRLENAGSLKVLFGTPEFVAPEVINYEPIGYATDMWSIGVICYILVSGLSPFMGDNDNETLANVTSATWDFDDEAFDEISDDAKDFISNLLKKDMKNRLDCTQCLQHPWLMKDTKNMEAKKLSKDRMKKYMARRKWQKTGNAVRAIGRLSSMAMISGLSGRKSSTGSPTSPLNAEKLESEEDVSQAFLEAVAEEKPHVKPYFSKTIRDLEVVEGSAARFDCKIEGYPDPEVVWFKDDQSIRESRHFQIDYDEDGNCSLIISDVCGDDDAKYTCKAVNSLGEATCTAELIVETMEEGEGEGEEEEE
# Protocol: as §1
# CSF1R = target: T6, CSF1R (Homo sapiens, UniProt P07333)
# T6 construct: purchased Reaction Biology Europe GmbH (formerly ProQinase)
# Protocol: as §1
# NIK = target: T7, NIK (Homo sapiens, UniProt Q99558)
# T7 construct: purchased Reaction Biology Europe GmbH (formerly ProQinase)
# T7 sequence (Q99558 whole entry): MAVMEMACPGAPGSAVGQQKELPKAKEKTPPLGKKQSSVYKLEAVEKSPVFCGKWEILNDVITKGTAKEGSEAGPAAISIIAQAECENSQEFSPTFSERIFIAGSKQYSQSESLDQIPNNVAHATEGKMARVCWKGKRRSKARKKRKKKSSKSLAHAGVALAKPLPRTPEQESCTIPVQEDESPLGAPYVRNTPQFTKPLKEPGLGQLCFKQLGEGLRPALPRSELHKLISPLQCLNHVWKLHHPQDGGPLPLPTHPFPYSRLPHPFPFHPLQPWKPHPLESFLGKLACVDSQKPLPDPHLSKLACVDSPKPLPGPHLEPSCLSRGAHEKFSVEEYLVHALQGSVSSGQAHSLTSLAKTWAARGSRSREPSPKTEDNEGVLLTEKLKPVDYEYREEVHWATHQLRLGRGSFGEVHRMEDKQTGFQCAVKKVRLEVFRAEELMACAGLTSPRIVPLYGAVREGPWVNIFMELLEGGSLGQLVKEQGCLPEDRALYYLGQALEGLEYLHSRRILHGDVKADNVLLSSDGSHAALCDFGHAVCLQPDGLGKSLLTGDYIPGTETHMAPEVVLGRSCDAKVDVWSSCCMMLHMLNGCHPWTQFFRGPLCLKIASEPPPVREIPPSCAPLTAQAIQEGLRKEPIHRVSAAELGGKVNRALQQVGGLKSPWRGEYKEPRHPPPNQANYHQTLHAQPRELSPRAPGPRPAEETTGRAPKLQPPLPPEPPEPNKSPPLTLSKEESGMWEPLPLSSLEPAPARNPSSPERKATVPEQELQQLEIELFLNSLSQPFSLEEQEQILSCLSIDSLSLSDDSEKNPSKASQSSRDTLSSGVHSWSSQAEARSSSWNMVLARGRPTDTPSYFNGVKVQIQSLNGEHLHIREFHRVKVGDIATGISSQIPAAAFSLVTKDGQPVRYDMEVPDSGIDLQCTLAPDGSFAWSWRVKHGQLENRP
# Protocol: as §1
# MEKK3 = target: T8, MEKK3 (Homo sapiens, UniProt Q99759)
# T8 construct: purchased Reaction Biology Europe GmbH (formerly ProQinase)
# T8 sequence (Q99759 1-626): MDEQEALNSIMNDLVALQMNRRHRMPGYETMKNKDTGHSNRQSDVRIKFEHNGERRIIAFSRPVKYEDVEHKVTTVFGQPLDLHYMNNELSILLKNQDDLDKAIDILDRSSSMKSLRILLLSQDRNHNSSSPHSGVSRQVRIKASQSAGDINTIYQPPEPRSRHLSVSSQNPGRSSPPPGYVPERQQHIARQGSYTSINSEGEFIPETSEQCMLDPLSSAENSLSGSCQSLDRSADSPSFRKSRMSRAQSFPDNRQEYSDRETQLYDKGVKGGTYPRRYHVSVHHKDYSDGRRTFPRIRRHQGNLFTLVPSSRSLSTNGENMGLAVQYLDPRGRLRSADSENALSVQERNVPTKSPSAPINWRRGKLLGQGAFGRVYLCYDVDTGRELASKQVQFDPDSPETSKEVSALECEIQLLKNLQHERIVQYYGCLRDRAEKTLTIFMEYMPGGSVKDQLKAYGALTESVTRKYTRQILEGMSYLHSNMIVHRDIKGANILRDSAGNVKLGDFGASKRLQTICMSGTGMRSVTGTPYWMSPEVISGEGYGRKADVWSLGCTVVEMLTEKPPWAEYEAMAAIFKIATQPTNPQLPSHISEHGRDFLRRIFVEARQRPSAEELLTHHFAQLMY
# Protocol: as §1
# CDK16/CycY = target: T9, CDK16/CycY (Homo sapiens, UniProt Q00536)
# T9 construct: purchased Reaction Biology Europe GmbH (formerly ProQinase)
# T9 sequence (Q00536 whole entry): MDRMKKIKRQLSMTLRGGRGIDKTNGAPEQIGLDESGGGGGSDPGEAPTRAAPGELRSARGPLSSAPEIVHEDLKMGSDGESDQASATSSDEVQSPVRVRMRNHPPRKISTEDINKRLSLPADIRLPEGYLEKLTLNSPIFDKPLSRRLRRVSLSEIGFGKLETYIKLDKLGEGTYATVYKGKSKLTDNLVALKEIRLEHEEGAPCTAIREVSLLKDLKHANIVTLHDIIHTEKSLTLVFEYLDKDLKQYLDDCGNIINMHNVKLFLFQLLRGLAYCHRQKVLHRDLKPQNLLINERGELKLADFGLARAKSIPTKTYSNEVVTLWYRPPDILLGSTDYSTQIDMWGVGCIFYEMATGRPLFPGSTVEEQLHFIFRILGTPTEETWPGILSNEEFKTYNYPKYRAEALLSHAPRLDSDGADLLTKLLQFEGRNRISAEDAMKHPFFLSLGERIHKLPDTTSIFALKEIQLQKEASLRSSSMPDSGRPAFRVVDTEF
# T9 sequence (Q8ND76 whole entry partner): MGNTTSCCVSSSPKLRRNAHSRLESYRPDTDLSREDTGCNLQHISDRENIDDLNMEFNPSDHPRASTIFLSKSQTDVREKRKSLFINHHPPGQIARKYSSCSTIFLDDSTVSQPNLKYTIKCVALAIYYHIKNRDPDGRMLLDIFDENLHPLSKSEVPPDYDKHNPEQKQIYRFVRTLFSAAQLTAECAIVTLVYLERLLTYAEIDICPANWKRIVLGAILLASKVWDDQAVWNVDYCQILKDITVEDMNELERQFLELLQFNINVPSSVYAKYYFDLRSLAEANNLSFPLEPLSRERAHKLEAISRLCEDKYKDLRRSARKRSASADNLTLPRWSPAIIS
# Protocol: as §1
# T1 sequence (O75582 whole entry): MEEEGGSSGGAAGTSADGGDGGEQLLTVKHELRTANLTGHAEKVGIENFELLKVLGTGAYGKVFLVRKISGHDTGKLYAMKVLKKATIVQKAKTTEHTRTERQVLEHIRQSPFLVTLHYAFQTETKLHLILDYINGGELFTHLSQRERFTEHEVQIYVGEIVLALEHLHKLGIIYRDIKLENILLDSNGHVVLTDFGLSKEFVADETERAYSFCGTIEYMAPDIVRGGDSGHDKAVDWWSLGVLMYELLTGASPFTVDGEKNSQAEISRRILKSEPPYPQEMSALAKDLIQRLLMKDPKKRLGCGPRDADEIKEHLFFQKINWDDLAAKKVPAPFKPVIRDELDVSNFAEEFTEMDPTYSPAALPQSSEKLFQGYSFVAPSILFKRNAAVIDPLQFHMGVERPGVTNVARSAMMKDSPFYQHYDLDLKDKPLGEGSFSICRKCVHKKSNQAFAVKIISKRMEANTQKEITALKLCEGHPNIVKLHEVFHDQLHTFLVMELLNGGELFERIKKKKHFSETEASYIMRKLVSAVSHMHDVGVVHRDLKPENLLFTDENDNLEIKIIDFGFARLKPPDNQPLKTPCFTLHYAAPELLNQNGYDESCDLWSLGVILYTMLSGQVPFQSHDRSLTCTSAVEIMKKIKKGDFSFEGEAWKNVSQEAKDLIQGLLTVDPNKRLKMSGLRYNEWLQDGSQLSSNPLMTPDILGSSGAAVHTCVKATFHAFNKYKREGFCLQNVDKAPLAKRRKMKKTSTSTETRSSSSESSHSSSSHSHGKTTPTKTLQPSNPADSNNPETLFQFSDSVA
SMILES,residual kinase activity (RPS6KA5; 0.3 µM),residual kinase activity (CHK2; 0.3 µM),residual kinase activity (ULK2; 0.3 µM),residual kinase activity (GRK3; 0.3 µM),residual kinase activity (MYLK; 0.3 µM),residual kinase activity (CSF1R; 0.3 µM),residual kinase activity (NIK; 0.3 µM),residual kinase activity (MEKK3; 0.3 µM),residual kinase activity (CDK16/CycY; 0.3 µM),also measured
COc1ccnc2[nH]cc(-c3cc(N)nc(N)c3)c12 [meriolin 16],82 % of control,82 % of control,54 % of control,107 % of control,71 % of control,88 % of control,79 % of control,90 % of control,16 % of control,residual kinase activity (RPS6KA5; 0.03 µM): 89 % of control; residual kinase activity (CHK2; 0.03 µM): 90 % of control; residual kinase activity (ULK2; 0.03 µM): 96 % of control; residual kinase activity (GRK3; 0.03 µM): 111 % of control; residual kinase activity (MYLK; 0.03 µM): 103 % of control; residual kinase activity (CSF1R; 0.03 µM): 90 % of control; residual kinase activity (NIK; 0.03 µM): 94 % of control; residual kinase activity (MEKK3; 0.03 µM): 106 % of control; residual kinase activity (CDK16/CycY; 0.03 µM): 64 % of control
c1ccc(CNc2cc(-c3c[nH]c4ncccc34)ccn2)cc1 [meriolin 36],46 % of control,81 % of control,82 % of control,98 % of control,62 % of control,33 % of control,59 % of control,66 % of control,17 % of control,residual kinase activity (RPS6KA5; 3 µM): 15 % of control; residual kinase activity (CHK2; 3 µM): 41 % of control; residual kinase activity (ULK2; 3 µM): 45 % of control; residual kinase activity (GRK3; 3 µM): 74 % of control; residual kinase activity (MYLK; 3 µM): 25 % of control; residual kinase activity (CSF1R; 3 µM): 14 % of control; residual kinase activity (NIK; 3 µM): 33 % of control; residual kinase activity (MEKK3; 3 µM): 26 % of control; residual kinase activity (CDK16/CycY; 3 µM): 3 % of control

# — PMC11167047 (Cell Death Discovery, 2024)
